Test system: 743489-274-T-PDC complex spheroid growth
Assay: Anticancer human tumor 743489-274-T-PDC patient-derived renal cell carcinoma cell line growth inhibition [AhR]
Details: for IC50: curve of first compound; for viability, T/C: stronger effect = lower value
From the text: Multicellular complex tumor spheroid response to aryl hydrocarbon receptor antagonists in combination with a variety of drugs and investigational agents in selected tumor cell lines
The current study was undertaken to assess response to aryl hydrocarbon receptor antagonists in combination with standard-of-care drugs and investigational agents in solid tumor complex spheroid models. Complex spheroids include a stromal component modeled by human endothelial cells (HUVEC) and fibroblasts modeled by human mesenchymal stem cells (MSCs). The concentration ranges selected for each drug and investigational agent were based upon clinically achievable concentrations if the clinical Cmax of the agent was known.
Compounds. The drugs and investigational agents: BAY 2416964 (NSC825713), GNF351 (NSC835774), CH-223191 (NSC835775), CPI-455 (NSC825282), aza-TdCyd (NSC777586), decitabine (NSC127716), belinostat (NSC758774), entinostat (NSC756642), pevonedistat (NSC761192), tazemetostat (NSC777109), talazoparib (NSC765396), olaparib (NSC753686), selinexor (NSC780203), nedisertib (M3814, NSC802822), bortezomib (NSC756655), venetoclax (NSC766270), doxorubicin (NSC123127), elimusertib (BAY189344, NSC800525), ceralasertib (AZD6738, NSC777638), TAK-243 (NSC785004), alisertib (NSC759677), etoposide (NSC141540), topotecan (NSC609699), eribulin (NSC707389), gemcitabine (NSC613327), carboplatin (NSC241240), cisplatin (NSC119875), and SN-38 (NSC673596) were obtained from the National Cancer Institute (NCI) Developmental Therapeutics Program Chemical Repository (32). The FDA-approved anticancer drug set is available from the Developmental Therapeutics Program at https://dtp.cancer.gov/organization/dscb/obtaining/available plates.htm. […] The stock solutions were prepared in dimethyl sulfoxide (DMSO, Sigma-Aldrich, St. Louis, MO, cat. D2650), except for the platinum compounds which were prepared in saline (Quality Biological, Gaithersburg, MD, cat. 114-055-101), at 800-fold the tested concentration and stored at -70 degrees C prior to their use. All drugs and investigational agents were tested over a range starting from a high concentration at or near the clinical Cmax and decreasing in half-log increments. If the clinical Cmax for an agent had not been determined, the highest concentration tested was 10 microM (Table 1).
Cell Culture. All cells were maintained in an incubator at 37 degrees C and 5% CO2 with 95% humidity. The PDC lines were cultured according to standard operating procedures established by the NCI PDMR (https://pdmr.cancer.gov). Briefly, all PDCs were thawed and cultured in Matrigel-coated flasks prepared with a working solution of 1X Ham's F-12 nutrient mix, without supplementation (Invitrogen, Waltham, MA, cat. 11765054), 100 U/mL penicillin-streptomycin (Invitrogen, cat. 15140122), and 2.5% Matrigel (Corning Inc., Corning, NY, cat. 354248) for the first three passages. All PDCs were cultured in complete DMEM/F-12 media containing advanced DMEM/F-12 (Invitrogen, cat. 12634028), 4.9% defined fetal bovine serum, heat inactivated (HyClone Laboratories Inc., Logan, UT, cat. SH30070.03HI), 389 ng/mL hydrocortisone (Sigma-Aldrich, cat. H4001), 9.7 ng/mL human EGF recombinant protein (Invitrogen, cat. PHG0313), 23.4 microg/mL adenine (Sigma-Aldrich, cat. A2786), 97.3 U/mL penicillin-streptomycin (Invitrogen, cat. 15140122), 1.9 mM L-glutamine (Invitrogen, cat. 25030081), and 9.7 microM Y-27632 dihydrochloride (Tocris Bioscience, Bristol, United Kingdom, cat. 1254). The PDCs were cultured in complete DMEM/F12 media without 10 microM Y-27632 dihydrochloride for at least two passages prior to the screen. The established cell lines NCI-H1341 and […] were cultured in DMEM/F-12, HEPES (Invitrogen, cat. 11330032), 5% defined fetal bovine serum (HyClone Laboratories Inc., cat. SH30070.03), ITS premix universal culture supplement [insulin (5 microg/mL), transferrin (5 microg/mL), and selenious acid (5 ng/mL)] […]

[1] = second compound 0.1 µM, first compound 0.0316 µM
[2] = second compound 0.1 µM, first compound 0.1 µM
[3] = second compound 0.1 µM, first compound 0.316 µM
[4] = second compound 0.1 µM, first compound 1 µM
[5] = second compound 0.1 µM, first compound 3.16 µM
[6] = second compound 0.1 µM, first compound 10 µM
[7] = second compound 0.316 µM, first compound 0.0316 µM
[8] = second compound 0.316 µM, first compound 0.1 µM
[9] = second compound 0.316 µM, first compound 0.316 µM
[10] = second compound 0.316 µM, first compound 1 µM
[11] = second compound 0.316 µM, first compound 3.16 µM
[12] = second compound 0.316 µM, first compound 10 µM
[13] = second compound 1 µM, first compound 0.0316 µM
[14] = second compound 1 µM, first compound 0.1 µM
[15] = second compound 1 µM, first compound 0.316 µM
[16] = second compound 1 µM, first compound 1 µM
[17] = second compound 1 µM, first compound 3.16 µM
[18] = second compound 1 µM, first compound 10 µM
[19] = second compound 3.16 µM, first compound 0.0316 µM
[20] = second compound 3.16 µM, first compound 0.1 µM
[21] = second compound 3.16 µM, first compound 0.316 µM
[22] = second compound 3.16 µM, first compound 1 µM
[23] = second compound 3.16 µM, first compound 3.16 µM
[24] = second compound 3.16 µM, first compound 10 µM
[25] = second compound 10 µM, first compound 0.0316 µM
[26] = second compound 10 µM, first compound 0.1 µM
[27] = second compound 10 µM, first compound 0.316 µM
[28] = second compound 10 µM, first compound 1 µM
[29] = second compound 10 µM, first compound 3.16 µM
[30] = second compound 10 µM, first compound 10 µM
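Further: spheroids exposed to agents for 7 days before readout.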
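Wherever viability, T/C is given: 100% = DMSO vehicle control wells.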

Nc1ccccc1NC(=O)c1ccc(CNC(=O)OCc2cccnc2)cc1 + CC(CO)NC(=O)c1cc(-c2ccc(Cl)cc2)nn(-c2cnn(C)c2)c1=O
IC50 (second compound 0.1 µM): 4.81 µM | IC50 (second compound 0.316 µM): 3.74 µM | IC50 (second compound 1 µM): 4.31 µM | IC50 (second compound 3.16 µM): 1.74 µM | IC50 (second compound 10 µM): 1.08 µM | viability, T/C [1]: 92.7% | viability, T/C [2]: 92.3% | viability, T/C [3]: 92.9% | viability, T/C [4]: 72.5% | viability, T/C [5]: 61.8% | viability, T/C [6]: 32.9% | viability, T/C [7]: 89.1% | viability, T/C [8]: 80.9% | viability, T/C [9]: 87.9% | viability, T/C [10]: 62.6% | viability, T/C [11]: 55.4% | viability, T/C [12]: 34.6% | viability, T/C [13]: 92.5% | viability, T/C [14]: 91% | viability, T/C [15]: 80.5% | viability, T/C [16]: 78.4% | viability, T/C [17]: 56.4% | viability, T/C [18]: 29.7% | viability, T/C [19]: 88.4% | viability, T/C [20]: 88.5% | viability, T/C [21]: 78% | viability, T/C [22]: 59.7% | viability, T/C [23]: 39.7% | viability, T/C [24]: 27.7% | viability, T/C [25]: 79.1% | viability, T/C [26]: 87.3% | viability, T/C [27]: 69.2% | viability, T/C [28]: 52.4% | viability, T/C [29]: 31.3% | viability, T/C [30]: 23.4%

NS(=O)(=O)OCC1CC(n2ccc3c(NC4CCc5ccccc54)ncnc32)CC1O (stereo not given) + CC(CO)NC(=O)c1cc(-c2ccc(Cl)cc2)nn(-c2cnn(C)c2)c1=O
IC50 (second compound 0.1 µM): > 10 µM | IC50 (second compound 0.316 µM): > 10 µM | IC50 (second compound 1 µM): > 10 µM | IC50 (second compound 3.16 µM): > 10 µM | IC50 (second compound 10 µM): > 10 µM | viability, T/C [1]: 89.3% | viability, T/C [2]: 89.7% | viability, T/C [3]: 101% | viability, T/C [4]: 123% | viability, T/C [5]: 149% | viability, T/C [6]: 155% | viability, T/C [7]: 86.1% | viability, T/C [8]: 82.3% | viability, T/C [9]: 85.7% | viability, T/C [10]: 119% | viability, T/C [11]: 148% | viability, T/C [12]: 156% | viability, T/C [13]: 82.3% | viability, T/C [14]: 96.7% | viability, T/C [15]: 99.2% | viability, T/C [16]: 116% | viability, T/C [17]: 141% | viability, T/C [18]: 143% | viability, T/C [19]: 91.1% | viability, T/C [20]: 86.1% | viability, T/C [21]: 99.2% | viability, T/C [22]: 109% | viability, T/C [23]: 132% | viability, T/C [24]: 136% | viability, T/C [25]: 89.5% | viability, T/C [26]: 96.1% | viability, T/C [27]: 84.8% | viability, T/C [28]: 112% | viability, T/C [29]: 119% | viability, T/C [30]: 129%

CC1(C)CCC(CN2CCN(c3ccc(C(=O)NS(=O)(=O)c4ccc(NCC5CCOCC5)c([N+](=O)[O-])c4)c(Oc4cnc5[nH]ccc5c4)c3)CC2)=C(c2ccc(Cl)cc2)C1 + CC(CO)NC(=O)c1cc(-c2ccc(Cl)cc2)nn(-c2cnn(C)c2)c1=O
IC50 (second compound 0.1 µM): > 10 µM | IC50 (second compound 0.316 µM): > 10 µM | IC50 (second compound 1 µM): > 10 µM | IC50 (second compound 3.16 µM): > 10 µM | IC50 (second compound 10 µM): > 10 µM | viability, T/C [1]: 96.8% | viability, T/C [2]: 97.4% | viability, T/C [3]: 90.6% | viability, T/C [4]: 93.7% | viability, T/C [5]: 106% | viability, T/C [6]: 96.3% | viability, T/C [7]: 110% | viability, T/C [8]: 95% | viability, T/C [9]: 93.1% | viability, T/C [10]: 89% | viability, T/C [11]: 90.3% | viability, T/C [12]: 94.8% | viability, T/C [13]: 92% | viability, T/C [14]: 88.3% | viability, T/C [15]: 98.1% | viability, T/C [16]: 86% | viability, T/C [17]: 91.9% | viability, T/C [18]: 95.8% | viability, T/C [19]: 89.8% | viability, T/C [20]: 96.3% | viability, T/C [21]: 107% | viability, T/C [22]: 95.7% | viability, T/C [23]: 98.9% | viability, T/C [24]: 93.6% | viability, T/C [25]: 95.4% | viability, T/C [26]: 112% | viability, T/C [27]: 93.1% | viability, T/C [28]: 93.9% | viability, T/C [29]: 95% | viability, T/C [30]: 104%

— PubChem BioAssay AID1919002 (Molecular Pharmacology Branch, DTP, NCI, 2023)
